# Test: UV-Vis spectroscopy of the rate of dissolution of dyes in water
# Assay type: physicochemical
# Settings: excess dye in cuvette, 320-800 nm, 0 to 10 minutes
# Experimental: An excess mass of both crystal violet and violet stearate was added to separate, clean polystyrene cuvettes. The spectrometer was calibrated to measure absorbance over the range of 320-800 nm. A background UV-Vis spectrum was then collected using a clean cuvette filled with distilled water (this spectrum is later subtracted from the dye solution spectrums to give the absorbance resulting from the dye only). The dye containing cuvettes were then loaded into the UV-Vis spectrometer. Water was then carefully syringed down the side of the first cuvette until the cuvettes were filled, and the spectrum immediately collected upon addition. […] The 20 minutes spectra are not included due to the fact they are very similar to the 10 minute spectra for both dyes tested.
row,SMILES,Change of UV-Vis absorbance spectra over time after addition of water (rate of dissolution)
1,"CN(C)c1ccc(C(=C2C=CC(=[N+](C)C)C=C2)c2ccc(N(C)C)cc2)cc1 [Crystal Violet, crystal violet]",do not change over time at all
2,CCCCCCCCCCCCCCCCCC(=O)[O-].CN(C)c1ccc(C(=C2C=CC(=[N+](C)C)C=C2)c2ccc(N(C)C)cc2)cc1 [Violet Stearate],definite increase in absorbance over time

# — patent publication US20210308319A1, “TRANSITION TO TRANSLUCENT SUTURES” (University of Pittsburgh - Of the Commonwealth System of …, priority 2018, published 2021)
